According to patent US20250235484A1, “METHODS FOR MAKING EXTRACELLULAR VESICLES, AND COMPOSITIONS AND METHODS OF USE THEREOF” (EVIA LIFE SCIENCES INC., priority 2021, published 2025):
“Also recorded” adds a separate entry of the source.

Legend:
[1] = tested on: Human primary keratinocytes; assay: Long-term culture of keratinocytes: proliferation, morphology, cell condition; format: cell-based
Procedure: (§1) Human primary keratinocytes were cultured in EpiLife™ medium with or without Y or Y+A supplementation according to the schedule below, and analyzed for extracellular vesicle secretion. 10 μM Y-27632 (Wako) and 0.5 μM A-83-01 (Wako) was used. Collection media was serum-free EpiLife™ medium without inhibitors. Thus, depending on the experiment, or stage of the experiment, human epidermal keratinocytes were cultured in serum free media such as EpiLife™ Medium, without or without small molecule inhibitor(s), namely, 10 μM Y-27632 (Wako) alone, or 10 μM Y-27632 plus 0.5 μM A-83-01 (Wako). [table] Long-term culture of keratinocytes was carried out by adding low molecular weight compounds Y and Y+A.

[2] = tested on: Human primary keratinocytes; assay: Extracellular vesicle secretion by cultured keratinocytes, Nanosight analysis of culture supernatant; format: cell-based; settings: compared with normal KC-EVs / keratinocytes without inhibitors
Procedure: as §1, with “(Wako).” for “(Wako). [table] Long-term culture of keratinocytes was carried out by adding low molecular weight compounds Y and Y+A.”

Structure (SMILES): CC(N)[C@H]1CC[C@H](C(=O)Nc2ccncc2)CC1 (mixture of isomers) [Y, (+/−)-trans-N-(4-Pyridyl)-4-(1-aminoethyl)-cyclohexanecarboxamide]
- cell proliferation ([1]; compared with culturing normal cells without Y, 10 μM Y-27632): increased; also recorded: enhanced
- cell growth, morphology and cell condition ([1]; long-term culture, micrographs): good cell growth, and good morphology; also recorded: cell morphology was the best
- amount of EVs secreted [2]: increased; also recorded: larger number
